Non-standard residues stand in square brackets, D forms with d. No end group written: not given here.
Experiments:
[1] = test system: inflammation induced in the ear by picryl chloride application; experiment: Picryl chloride-induced ear swelling; assay type: in vivo, BALB/C mice; conditions: for % Inhibition 3 h: 3 h after picryl chloride; for % Inhibition 6 h: 6 h after picryl chloride; for overall effect on inflammation (ANOVA): 10-80 μg IP, 3 and 6 h
Description: Hiltz, M. E., Catania, A., Lipton, J. M., Anti-Inflammatory Activity of aα-MSH (11-13) Analogs: Influence of Alteration in Stereochemistry, 12 Peptides 767 (1981). […] Female BALB/C mice (Simonsen Laboratories), 7 weeks old, were housed at 23-25° C. in groups of no more than 5 per cage [28 cm (L)×18 cm (W)×13 cm (H)]. They were allowed to acclimatize to standard lighting and temperature conditions for at least 1 week, with food and water available ad lib, before the experiment began. Five to ten animals were randomly assigned to each treatment group each test day, and all experiments were repeated at least twice to confirm reproducibility. To reduce error due to slight differences in responses to the irritant of animals from different shipments, tests of each agent were performed as separate experiments in which experimental and control animals were drawn from the same shipment.
In the experiments each animal was anesthetized with 1 mg of pentobarbital sodium solution ([…], Nembutal, Abbott Laboratories, Abbott park, Ill.). Baseline ear thickness was measured for both ears with a spring-loaded micrometer (Swiss Precision Instruments, Los Angeles, Calif.). Ear thickness was expressed in units of 10^−3 cm; the average thickness of unstimulated ears was approximately 25-30×10^−3 cm. After baseline measurements were taken, one of six solutions was injected IP. […] The doses of the tripeptides were 10 μg (2.6×.10^−8 M), 20 μg (5.2×.10^−8 M), 40 μg (1.04×.10^−7 M), and 80 μg (2.08×.10^−7 M). Immediately after saline or α-MSH injection, a micropipette was used to coat both sides of each ear with 10 μl […] of a 0.5% picryl chloride (Polysciences, Warrington, Pa.) solution in acetone.
Ear thickness was remeasured 3 and 6 h after picryl chloride application. Swelling was determined by subtracting baseline thickness from the measurements for each ear at 3 and 6 h. The differences for both ears were then averaged for the final analysis.
Repeated-measure ANOVA techniques were used to determine if there was an overall difference among group data for each peptide tested in separate experiments. In those cases in which the ANOVA yielded significant results, Dunnett's test was then used to compare the effects of peptide doses with control (saline) data for each of the two time periods, 3 and 6 h.

C. albicans = C. albicans colony forming units (candidacidal activity); assay type: cell-based; conditions: for relative potency in reducing C. albicans viability: FIG. 2, 10^−4M melanocortin peptides
Description: C. albicans (clinical isolate) was obtained from the collection of the Department of Microbiology, Ospedale Maggiore di Milano and maintained on Sabouraud's agar slants and periodically transferred to Sabouraud's agar plates and incubated for 48 hours at 28° C. To prepare a stationary growth phase yeast, a colony was taken from the agar plate and transferred into 30 ml Sabouraud-dextrose broth and incubated for 72 hours at 32° C. Cells were centrifuged and suspended in Hank's balanced salt solution (“HBSS”) to the desired concentration. Viability, determined by the exclusion of 0.01% methylene blue, remained >98%.
C. albicans (1×10^6/ml in HBSS) was incubated in the presence or absence or α-MSH(1-13) (SEQ ID NO: 3) or (11-13) (SEQ ID NO: 1) at concentrations in the range of 10^−15 M to 10^−6 M for 2 hours at 37° C. Cells were then washed in cold distilled water and diluted with HBSS to a concentration of 100 organisms/ml. One-ml aliquots were dispensed on blood agar plates and incubated for 48 hours at 37° C. Organism viability was estimated from the number of colonies formed.
In subsequent experiments using familiar procedures we compared activity of α-MSH(4-10) (SEQ ID NO: 10), (6-13) (SEQ ID NO: 2), (11-13) (SEQ ID NO: 1), ACTH(1-39) (SEQ ID NO: 9), (18-39) (SEQ ID NO: 11) and fluconazole, the latter an established antifungal agent. Melanocortin peptides and fluconazole were tested in concentrations of 10^−6 M to 10^−4 M. There were at least six replicates for each concentration of peptide. […]

[2] = test system: edema caused by intradermal injection of recombinant human IL-1β in the mouse ear; experiment: IL-1β-induced ear edema with centrally administered α-MSH and receptor antagonists; assay type: in vivo, BALB/c mice
Description: See Macaluso, A., McCoy, D., Ceriani, G., Watanabe, T., Biltz, J., Catania, A., and Lipton, J. M., Anti-inflammatory Influences of a-MSH Molecules: Central Neurogenic and Peripheral Actions, 14(4), J. of Neuroscience 2377-2382 (1994). Female BALB/c mice (Simonsen Laboratories, Gilroy, Calif.), 7-8 weeks old, were housed at 23-25° C. in groups not exceeding five animals per cage [28 cm (L)×18 cm (W)×13 cm (H)]. Before the experiments they were acclimatized for not less than 1 week before experimentation to standard lighting and temperature conditions with food and water freely available.
Mice were anesthetized with 10% pentobarbital sodium solution (1 mg/mouse, 50 mg/ml, Nembutal sodium solution; Abbott Laboratories, North Chicago, Ill.). Baseline ear thickness measurements were taken with a spring-loaded micrometer (Swiss Precision Instruments, Los Angeles, Calif.). Ear thickness was expressed in centimeters and was measured at least twice at each time point. The average thickness of unstimulated ears was […]. Inflammation was induced by injecting 20 μl of recombinant human IL-1β (1500 U; Genzyme, Cambridge, Mass.) directly into the skin (intradermally) of one ear of each mouse using a 28 gauge needle (Hiltz et al., 1992). Measures of ear thickness were repeated 4 and 6 hr later, while the mice were under sodium pentobarbital anesthesia.
Several agents were administered at the time of ear challenge to pharmacologically block certain receptors: atropine (Sigma Chemical Co.; 150 μg i.p.), a muscarinic receptor blocker that acts on autonomic end-organ receptors, was chosen because of links between inflammation and modulation of pain and the finding that muscarinic antagonists increase pain threshold (Hartvig et al., 1989); phentolamine (Sigma; 150 μg i.p.) an agent that competes for occupancy of α-adrenergic receptors; propranolol (Sigma; 150 μg, i.p.; 30 μg, i.c.v.), a nonspecific competitive antagonist for β-adrenergic receptors.
Because of the size of the experiments and the requirement for several shipments of animals over time, several experiments were performed, each with complete treatment and control groups drawn from the same shipment of mice. Omnibus analysis of variance techniques (Dynastat, Washington, D.C.) were used to test overall differences among group means. Tukey's protected t test was used to compare individual means. Probability values of <0.05 were considered significant.

[3] = test system: carrageenan-induced swelling in rat paws; experiment: Rat paw edema test (carrageenan); assay type: in vivo, Sprague-Dawley rats; conditions: 100 mg/kg intraperitoneal, rats
Description: A second in vivo bioassay for anti-inflammatory activity was conducted in which the action of the tripeptide (SEQ ID NO: 1) was compared to that of hydrocortisone. In this assay, the two agents were given at similar doses and tested for their independent ability to inhibit carrageenan-induced swelling in rat paws. This assay, the rat paw edema test, was conducted generally as it is typically performed in the art, for example, as described by Winter et al. (1962), Proc. Soc. Exp. Biol. Med., 111:544 or in U.S. Pat. No. 4,150,137.
Briefly, the assay was performed as follows. Each of twenty-four male Sprague-Dawley rats was assigned to one of four groups: Tripeptide treatment and controls (matched according to body weight and initial paw volume), hydrocortisone treatment and matched controls. The volume of the right rear paw of the test and control animals was determined using standard procedures and a mercury displacement volumetric technique. […] One hour later 0.5 ml of 1% lambda carrageenan in saline solution was injected into the right rear paw of the animals and the paw volume was again recorded (baseline measure). For comparison of the effects of the two treatments, paw volume of experimental animals measured at hourly intervals was expressed as a percentage of the volume change of their respective matched controls.

[4] = antagonist administered intraperitoneally

Ac-[D-Val^13]α-MSH(11-13)-NH2 (Ac-Lys-Pro-[dV]-NH2; SMILES CC(=O)N[C@@H](CCCCN)C(=O)N1CCC[C@H]1C(=O)N[C@@H](C(N)=O)C(C)C) [Ac-[D-Pro^13]α-MSH(11-13)-NH2]
% Inhibition 3 h ([1]; 10 μg IP): 24% | % Inhibition 6 h ([1]; 10 μg IP): 23% | % Inhibition 3 h ([1]; 20 μg IP): 48% | % Inhibition 6 h ([1]; 20 μg IP): 54% | % Inhibition 3 h ([1]; 40 μg IP): 39% | % Inhibition 6 h ([1]; 40 μg IP): 45% | % Inhibition 3 h ([1]; 80 μg IP): 41% | % Inhibition 6 h ([1]; 80 μg IP): 29% | overall effect on inflammation (ANOVA) [1]: marked inhibitory influence

VPK-Ac-CC-Ac-KPV (Ac-CKPV; also: disulfide dimer via Cys)
effectiveness against microbes relative to α-MSH(11-13) (C. albicans): at least as effective as α-MSH(11-13) | C. albicans colony forming units (CFU) (C. albicans; FIG. 1, incubation 2 hours at 37° C.): inhibited

CC(C)NCC(O)COc1cccc2ccccc12 (stereo not drawn) [propranolol]
effect of antagonist on the anti-inflammatory influence of centrally administered α-MSH(1-13) [2, 4]: inhibited | effect of antagonist on the anti-inflammatory influence of centrally administered α-MSH(1-13) ([2]; antagonist injected centrally): little effect

COc1ccc(OC)c(C(O)C(C)NC(C)(C)C)c1 (stereo not drawn) [butoxamine]
effect of antagonist on the anti-inflammatory influence of centrally administered α-MSH(1-13) [2, 4]: significantly reduced

Ac-[D-Pro^12]α-MSH(11-13)-NH2 (Ac-Lys-[dP]-Val-NH2; SMILES CC(=O)N[C@@H](CCCCN)C(=O)N1CCC[C@@H]1C(=O)N[C@H](C(N)=O)C(C)C)
% Inhibition 3 h ([1]; 10 μg IP): 4% | % Inhibition 6 h ([1]; 10 μg IP): 8% | % Inhibition 3 h ([1]; 20 μg IP): 11% | % Inhibition 6 h ([1]; 20 μg IP): 5% | % Inhibition 3 h ([1]; 40 μg IP): 10% | % Inhibition 6 h ([1]; 40 μg IP): 8% | % Inhibition 3 h ([1]; 80 μg IP): 8% | % Inhibition 6 h ([1]; 80 μg IP): 6% | overall effect on inflammation (ANOVA) [1]: no significant effect on inflammation

C[C@]12CCC(=O)C=C1CC[C@@H]1[C@@H]2[C@@H](O)C[C@@]2(C)[C@H]1CC[C@]2(O)C(=O)CO [hydrocortisone, reference compound]
anti-inflammatory activity (inhibition of paw edema) ([3]; between 1 and 4 hours): nearly identical anti-inflammatory activity | decrease in paw inflammation ([3]; first hour after carrageenan injection): ~30%

ACTH(18-39): ACTH fragment (18-39) (CLIP) (RPVKVYPAGEDDEASEAFPLEF; Designed polypeptide with anti-inflammatory, anti-microbial, anti-fungal, and anti-viral properties.) [reference compound]
relative potency in reducing C. albicans viability (C. albicans): did not reduce

Ac-[D-Lys^11, D-Val^13]α-MSH(11-13)-NH2 (Ac-[dK]-Pro-[dV]-NH2; SMILES CC(=O)N[C@H](CCCCN)C(=O)N1CCC[C@H]1C(=O)N[C@@H](C(N)=O)C(C)C)
% Inhibition 3 h ([1]; 10 μg IP): 22% | % Inhibition 6 h ([1]; 10 μg IP): 22% | % Inhibition 3 h ([1]; 20 μg IP): 55% | % Inhibition 6 h ([1]; 20 μg IP): 46% | % Inhibition 3 h ([1]; 40 μg IP): 42% | % Inhibition 6 h ([1]; 40 μg IP): 41% | % Inhibition 3 h ([1]; 80 μg IP): 40% | % Inhibition 6 h ([1]; 80 μg IP): 44% | overall effect on inflammation (ANOVA) [1]: significant overall reduction in inflammation

Ac-[D-Lys^11]α-MSH(11-13)-NH2 (Ac-[dK]-Pro-Val-NH2; SMILES CC(=O)N[C@H](CCCCN)C(=O)N1CCC[C@H]1C(=O)N[C@H](C(N)=O)C(C)C)
% Inhibition 3 h ([1]; 10 μg IP): 23% | % Inhibition 6 h ([1]; 10 μg IP): 17% | % Inhibition 3 h ([1]; 20 μg IP): 25% | % Inhibition 6 h ([1]; 20 μg IP): 16% | % Inhibition 3 h ([1]; 40 μg IP): 35% | % Inhibition 6 h ([1]; 40 μg IP): 37% | % Inhibition 3 h ([1]; 80 μg IP): 34% | % Inhibition 6 h ([1]; 80 μg IP): 29% | overall effect on inflammation (ANOVA) [1]: significantly reduced inflammation

CN1[C@@H]2CC[C@H]1C[C@@H](OC(=O)C(CO)c1ccccc1)C2 (stereo partly drawn) [atropine]
effect of antagonist on the anti-inflammatory influence of centrally administered α-MSH(1-13) [2, 4]: did not alter

ACTH(1-39): adrenocortitrophic hormone (ACTH) peptide 1-39 (SYSMEHFRWGKPVGKKRRPVKVYPAGEDDEASEAFPLEF; listed as Homo sapiens) [reference compound]
relative potency in reducing C. albicans viability (C. albicans): did not reduce

CC(C)NCC(O)COc1ccc(CC(N)=O)cc1 (stereo not drawn) [atenolol]
effect of antagonist on the anti-inflammatory influence of centrally administered α-MSH(1-13) [2, 4]: little inhibition

Cc1ccc(N(CC2=NCCN2)c2cccc(O)c2)cc1 [phentolamine]
effect of antagonist on the anti-inflammatory influence of centrally administered α-MSH(1-13) [2, 4]: did not alter
